{"source": "patent US12622893B2", "about": "“Alpha2 adrenergic agonist codrugs conjugated with muscarinic agonist drugs” (ADS THERAPEUTICS LLC, priority 2021, dated 2026)", "key": {"[1]": {"assay": "In vitro metabolic stability in rabbit cornea homogenates", "format": "in vitro ADME, Dutch Belted rabbits", "conditions": "1 μM test compound, 0.3 mg/mL corneal protein homogenate, pH=6.0, 37° C.; for Rate of formation Metabolite 1: metabolite 1 = pilocarpine; for Rate of formation Metabolite 2: metabolite 2 as named under each value (Dexmedetomidine metabolite, brimonidine metabolite or brimonidine)", "procedure": "Dutch Belted rabbits will be euthanized with an overdose of sodium pentobarbital. The corneas will be collected and homogenized in ice-cold potassium chloride solution (pH=7.4). The homogenate will be centrifuged at 755×g for 30 min at 4° C. and aliquots of the supernatant will be stored at or below −70° C. until metabolism experiments will be conducted. Prior to storing the homogenates, an aliquot will be removed for the determination of protein concentrations by calculating the […] using a spectrophotometer. All metabolic stability experiments will be performed in triplicate in 96-well plate format. The final incubation mixture will contain 1 μM test compound, 0.3 mg/mL corneal protein homogenate in a final volume of 0.5 mL 0.1 M potassium phosphate buffer (pH=6.0). The final percentage of solvent in the incubation will be less than 1.0% to prevent inhibition of enzymatic activity. Following a pre-incubation at 37° C., test article will be added to initiate the reaction. At designated time points (typically less than 60 minutes to capture the linear range of metabolite formation), 0.05 mL aliquots will be removed from the incubation mixtures using a clean pipet tip and immediately placed in organic solvent to stop any esterase activity. The hydrolysis to the metabolites will be confirmed to be due to esterase activity and not chemical stability. The samples will be analyzed by liquid chromatography with mass spectrometry (LC-MS/MS) detection to determine the metabolite concentrations resulting from the metabolism of the hybrid compounds. Internal standards were used to compensate for variability from sample processing, chromatographic elution, mass spectrometer response and ion suppression by matrix components."}, "rabbit pupil [2]": {"system": "rabbit pupil", "assay": "In vivo pharmacology study of measuring pupil size (Example 27)", "parameters": "species or system Dutch belted rabbits", "conditions": "FIG. 2; 0.5% and 2%", "procedure": "(§1) Three (3) female Dutch belted rabbits were randomly assigned to each group by Provantis or Excel based on body weight. Each animal was dosed 40 μL of testing article (see Table 4 below) to both eyes. The pupil sizes of both eyes were measured at baseline (30 minutes before dosing), 0.5 h, 1 h, 2 h, 3 h, 4 h, 6 h, 8 h after dosing. The pupil size measurement data were analyzed for efficacy of pupil constriction. CBT compounds tested are co-drugs of pilocarpine-alpha adrenergic agonists as described above. The vehicle used to dissolve CBT compounds is the same as the vehicle used in the negative control in group 1. Positive control 1 is 1.25% Pilocarpine HCl in an aqueous buffer. Positive control 2 is 3.0% Carbachol and 0.2% Brimonidine in an aqueous buffer. This control can result in a large pupil constrictive effect."}, "rabbit pupil [3]": {"system": "rabbit pupil", "assay": "In vivo pharmacology study of measuring pupil size (Example 28)", "parameters": "species or system Dutch belted rabbits", "conditions": "FIG. 3; for efficacy of pupil constriction compared with positive control 1: positive control 1 is 1.25% Pilocarpine HCl; for potency of pupil constriction compared with other co-drugs: all co-drugs at 1%", "procedure": "as §1, with “Table 5” for “Table 4”, “8 h, 24” for “8”, “constriction. Co-drug” for “constriction. CBT”, “compounds” for “compounds tested”, “dissolve Co-drug” for “dissolve CBT”"}, "[4]": {"assay": "In vivo ocular pharmacokinetics following a single topical ophthalmic administration", "parameters": "species or system New Zealand White Rabbits", "conditions": "0.5% (w/v) solution; for Conc. of Co-drug in Cornea Tissue: both eyes", "procedure": "Rabbits will be dosed once by ocular instillation to both eyes with each compound formulated in a 0.5% (w/v) solution. At 0.25, 0.5, 1, 2, 6 and 10 hours post dose, cornea, aqueous humor, conjunctiva and eyelid margin will be collected and stored at approximately −70° C. until bioanalysis. Ocular tissue samples will be analyzed by liquid chromatography with mass spectrometry detection to determine the parent and metabolite (pilocarpine and brimonidine) concentrations resulting from the metabolism of ester linked co-drugs. Internal standards will be used to compensate for variability from sample processing, chromatographic elution, mass spectrometer response and ion suppression by matrix components. […]"}, "[5]": {"conditions": "0.25 hr after dosing the co-drug"}, "[6]": {"conditions": "0.5 hr after dosing the co-drug"}}, "data": [{"smiles": "CC[C@H](C(=O)OCc1cccc([C@H](C)c2c[nH]cn2)c1C)[C@H](CO)Cc1cncn1C", "note": "[Compound-1, 3-((S)-1-(1H-imidazol-4-yl)ethyl)-2-methylbenzyl (2S,3R)-2-ethyl-4-hydroxy-3-((1-methyl-1H-imidazol-5-yl)methyl)butanoate]", "values": [{"measurement": "Rate of formation Metabolite 1", "setting": "[1]", "value": "5.56 ± 0.43", "unit": "nM/min/mg"}, {"measurement": "Rate of formation Metabolite 2", "setting": "[1]", "value": "3.52 ± 0.23", "unit": "nM/min/mg"}]}, {"smiles": "CC[C@H](C(=O)OCc1cccc([C@H](C)c2c[nH]cn2)c1C)[C@H](COC(C)=O)Cc1cncn1C", "note": "[Compound-2, 3-((S)-1-(1H-imidazol-4-yl)ethyl)-2-methylbenzyl (2S,3R)-4-acetoxy-2-ethyl-3-((1-methyl-1H-imidazol-5-yl)methyl)butanoate]", "values": [{"measurement": "Rate of formation Metabolite 1", "setting": "[1]", "value": "4.34 ± 0.11", "unit": "nM/min/mg"}, {"measurement": "Rate of formation Metabolite 2", "setting": "[1]", "value": "2.87 ± 0.78", "unit": "nM/min/mg"}, {"measurement": "dose relation of pupil constriction", "setting": "rabbit pupil [2]", "value": "dose-related effects"}]}, {"smiles": "CC[C@H](C(=O)OCOC(=O)N1CCN=C1Nc1ccc2[nH]cnc2c1Br)[C@H](COC(C)=O)Cc1cncn1C", "note": "[Compound-4, (((2S,3R)-4-acetoxy-2-ethyl-3-((1-methyl-1H-imidazol-5-yl)methyl)butanoyl)oxy)methyl 2-((4-bromo-1H-benzo[d]imidazol-5-yl)amino)-4,5-dihydro-1H-imidazole-1-carboxylate]", "values": [{"measurement": "Rate of formation Metabolite 1", "setting": "[1]", "value": "5.87 ± 0.97", "unit": "nM/min/mg"}, {"measurement": "Rate of formation Metabolite 2", "setting": "[1]", "value": "6.34 ± 0.07", "unit": "nM/min/mg"}]}, {"smiles": "CC[C@H](C(=O)N1CCN/C1=N/c1ccc2nccnc2c1Br)[C@H](COC(C)=O)Cc1cncn1C", "note": "[Compound-16, (2R,3S)-3-((Z)-2-((5-bromoquinoxalin-6-yl)imino)imidazolidine-1-carbonyl)-2-((1-methyl-1H-imidazol-5-yl)methyl)pentyl acetate]", "values": [{"measurement": "efficacy of pupil constriction compared with positive control 1", "setting": "rabbit pupil [3]", "value": "efficacies similar to that of positive control 1"}, {"measurement": "potency of pupil constriction compared with other co-drugs", "setting": "rabbit pupil [3]", "value": "better potency than Compound-15 and Compound-19"}]}, {"smiles": "CC[C@H](C(=O)N1CCN/C1=N/c1ccc2nccnc2c1Br)[C@H](COC(=O)C(C)(C)C)Cc1cncn1C", "note": "[Compound-20, (2R,3S)-3-((Z)-2-((5-bromoquinoxalin-6-yl)imino)imidazolidine-1-carbonyl)-2-((1-methyl-1H-imidazol-5-yl)methyl)pentyl pivalate]", "values": [{"measurement": "efficacy of pupil constriction compared with positive control 1", "setting": "rabbit pupil [3]", "value": "efficacies similar to that of positive control 1"}, {"measurement": "potency of pupil constriction compared with other co-drugs", "setting": "rabbit pupil [3]", "value": "better potency than Compound-15 and Compound-19"}]}, {"smiles": "CC[C@H](C(=O)OCOC(=O)N1CCN=C1Nc1ccc2[nH]cnc2c1Br)[C@H](CO)Cc1cncn1C", "note": "[compound 3, (((2S,3R)-2-ethyl-4-hydroxy-3-((1-methyl-1H-imidazol-5-yl)methyl)butanoyl)oxy)methyl 2-((4-bromo-1H-benzo[d]imidazol-5-yl)amino)-4,5-dihydro-1H-imidazole-1-carboxylate]", "values": [{"measurement": "Rate of formation Metabolite 1", "setting": "[1]", "value": "8.86 ± 0.13", "unit": "nM/min/mg"}, {"measurement": "Rate of formation Metabolite 2", "setting": "[1]", "value": "1.23 ± 0.03", "unit": "nM/min/mg"}]}, {"smiles": "CC[C@H](C(=O)OCOC(=O)N1CCN=C1Nc1ccc2nccnc2c1Br)[C@H](CO)Cc1cncn1C", "note": "[compound 5, (((2S,3R)-2-ethyl-4-hydroxy-3-((1-methyl-1H-imidazol-5-yl)methyl)butanoyl)oxy)methyl 2-((5-bromoquinoxalin-6-yl)amino)-4,5-dihydro-1H-imidazole-1-carboxylate]", "values": [{"measurement": "Rate of formation Metabolite 1", "setting": "[1]", "value": "2.13 ± 0.24", "unit": "nM/min/mg"}, {"measurement": "Rate of formation Metabolite 2", "setting": "[1]", "value": "4.98 ± 0.34", "unit": "nM/min/mg"}]}, {"smiles": "CC[C@H](C(=O)OCOC(=O)N1CCN=C1Nc1ccc2nccnc2c1Br)[C@H](COC(C)=O)Cc1cncn1C", "note": "[compound 6, (((2S,3R)-4-acetoxy-2-ethyl-3-((1-methyl-1H-imidazol-5-yl)methyl)butanoyl)oxy)methyl 2-((5-bromoquinoxalin-6-yl)amino)-4,5-dihydro-1H-imidazole-1-carboxylate]", "values": [{"measurement": "Rate of formation Metabolite 1", "setting": "[1]", "value": "7.43 ± 0.27", "unit": "nM/min/mg"}, {"measurement": "Rate of formation Metabolite 2", "setting": "[1]", "value": "1.98 ± 0.09", "unit": "nM/min/mg"}, {"measurement": "Conc. of Brimonidine (Metabolite 2) in Cornea Tissue", "setting": "[4]; [5]", "value": "24 ± 12", "unit": "ng/mL"}, {"measurement": "Conc. of Pilocarpine (Metabolite 1) in Cornea Tissue", "setting": "[4]; [5]", "value": "39 ± 37", "unit": "ng/mL"}, {"measurement": "Conc. of Co-drug in Cornea Tissue", "setting": "[4]; 0.25 hr post dose", "value": "7238 ± 345", "unit": "ng/mL"}, {"measurement": "Conc. of Brimonidine (Metabolite 2) in Cornea Tissue", "setting": "[4]; [6]", "value": "78 ± 54", "unit": "ng/mL"}, {"measurement": "Conc. of Pilocarpine (Metabolite 1) in Cornea Tissue", "setting": "[4]; [6]", "value": "139 ± 78", "unit": "ng/mL"}, {"measurement": "Conc. of Co-drug in Cornea Tissue", "setting": "[4]; 0.5 hr post dose", "value": "987 ± 245", "unit": "ng/mL"}, {"measurement": "Conc. of Brimonidine (Metabolite 2) in Cornea Tissue", "setting": "[4]; 1 hr after dosing the co-drug", "value": "98 ± 23", "unit": "ng/mL"}, {"measurement": "Conc. of Pilocarpine (Metabolite 1) in Cornea Tissue", "setting": "[4]; 1 hr after dosing the co-drug", "value": "379 ± 120", "unit": "ng/mL"}, {"measurement": "Conc. of Co-drug in Cornea Tissue", "setting": "[4]; 1 hr post dose", "value": "234 ± 33", "unit": "ng/mL"}, {"measurement": "Conc. of Brimonidine (Metabolite 2) in Cornea Tissue", "setting": "[4]; 2 hr after dosing the co-drug", "value": "139 ± 37", "unit": "ng/mL"}, {"measurement": "Conc. of Pilocarpine (Metabolite 1) in Cornea Tissue", "setting": "[4]; 2 hr after dosing the co-drug", "value": "539 ± 30", "unit": "ng/mL"}, {"measurement": "Conc. of Co-drug in Cornea Tissue", "setting": "[4]; 2 hr post dose", "value": "95 ± 19", "unit": "ng/mL"}, {"measurement": "Conc. of Brimonidine (Metabolite 2) in Cornea Tissue", "setting": "[4]; 6 hr after dosing the co-drug", "value": "339 ± 134", "unit": "ng/mL"}, {"measurement": "Conc. of Pilocarpine (Metabolite 1) in Cornea Tissue", "setting": "[4]; 6 hr after dosing the co-drug", "value": "754 ± 127", "unit": "ng/mL"}, {"measurement": "Conc. of Co-drug in Cornea Tissue", "setting": "[4]; 6 hr post dose", "value": "39 ± 37", "unit": "ng/mL"}, {"measurement": "Conc. of Brimonidine (Metabolite 2) in Cornea Tissue", "setting": "[4]; 10 hr after dosing the co-drug", "value": "539 ± 97", "unit": "ng/mL"}, {"measurement": "Conc. of Pilocarpine (Metabolite 1) in Cornea Tissue", "setting": "[4]; 10 hr after dosing the co-drug", "value": "867 ± 37", "unit": "ng/mL"}, {"measurement": "Conc. of Co-drug in Cornea Tissue", "setting": "[4]; 10 hr post dose", "value": "12 ± 3", "unit": "ng/mL"}]}]}
